Experimental data from paper PMC11434026, “Development and Validation of an LC-MS/MS Assay for the Quantitation of MO-OH-Nap Tropolone in Mouse Plasma: Application to In Vitro and In Vivo Pharmacokinetic Studies” (Molecules, 2024).
Read-outs that look alike come from different tables or passages of the source.

Legend:
[1] = Plasma pharmacokinetics after single IP dose in CD-1 mice; type: in vivo, mouse; conditions: for Cmax / Vd/F / AUC: 5 mg/kg
Protocol: Female CD-1 mice,6–8-week-old, with weights ranging from 20 to 25 g were housed in the UNMC animal facility, at a temperature of 23–24 °C, relative humidity of 40–70%, and 12/12-h light/dark cycles. Mice were left to acclimatize to laboratory conditions for 7 days prior to experimental day. MO-OH-Nap was dissolved in a 5% DMSO, 45% w/v hydroxypropyl-β-cyclodextrin solution in PBS (final concentration 0.625 mg/mL MO-OH-Nap). MO-OH-Nap (5 mg/kg) was administered IP. After dosing, approximately 100 µL of blood was collected in Lithium-Heparin-Microvette 300 µL Capillary Blood Collection Tube (SARSTEDT AG& Co., Nümbrecht, Germany) from the maxillary vein at 5, 15, 30 min and 1, 2, 4, 6, 8, 24, and 48 h. Two blood time points were collected from every mouse and the third time point was the terminal time point, for a total of three time points from each mouse (5 mice/group/per time point). Blood was centrifuged at 4000× g at 4 °C for 10 min to extract plasma. The collected plasma samples were stored at −80 °C until analysis. The pharmacokinetics of MO-OH-Nap were determined using non-compartmental (NCA) pharmacokinetics analysis, utilizing Phoenix® WinNonlin software version 8.2 (Certara Corporation, Mountain View, CA, USA). The Cmax and Tmax were determined from visual inspection of the concentration time data. The AUC0_∞ was estimated using the linear trapezoidal method from 0 time point to last time point (0-tlast) and extrapolation from last time point to infinity based on the observed concentration at the last time point divided by the terminal elimination rate constant (k). The t1/2, CL/F and Vd/F were calculated using Equation (10), Equation (11) and Equation (12), respectively. (10) t1/2=0.693/k (11) CL=Dose/AUC0_∞ (12) Vd=Dose /k×AUC0_∞

mouse plasma proteins = test: Plasma protein binding by Rapid Equilibrium Dialysis (RED); type: in vitro ADME; conditions: for % Drug Remaining at 5 h ± SD: 37 °C; for Equilibrium at 5 h ± SD: receiver/donor concentration; for % Plasma Protein Bound ± SD: mouse plasma; for % Drug Remaining at 5 h ± SD / % Plasma Protein Bound ± SD: 5 h
Protocol: […] The RED Kit represents 90 wells with two chambers at each well (red chamber for plasma and white buffer chamber separated by Teflon base plate. Prior to the experiments, RED kit was rinsed with 10% ethanol for 10 min and left to dryness. Also, mouse plasma was centrifuged at 2200 rpm (540× g) for 5 min and adjusted to pH […] with lactic acid. In brief, MO-OH-Nap spiked plasma samples (300 µL) were added in red chamber. The buffer chamber contained […] of Phosphate-buffered saline (100 mM, pH 7.4), which contained 100 mM sodium phosphate (Na3PO4) and 150 mM NaCl. The RED kit plate was covered with sealing tape and incubated at 37 °C on an orbital shaker at 300 rpm for 5 h. Aliquot of 50 µL were collected from both chambers, then mixed with equal amount of buffer or blank plasma, consecutively, for analysis. The samples were then processed using PPT extraction technique, as per described in the Section 4.4, and analyzed by LC-MS/MS.
Additionally, the plasma stability and the non-specific binding potential of MO-OH-Nap to the RED kit dialysis membrane were determined separately at the same time from the remaining plasma samples spiked with MO-OH-Nap.
Stability and non-specific binding were assessed by collecting samples at 0 h and 5 h of spiked MO-OH-Nap […] that was incubated in the same PPB condition for 5 h. The two samples were then analyzed by LC-MS/MS and the concentration was then compared between the two time points. The stability, equilibrium, device recovery, and PPB in plasma were calculated using the following equations:(6) % Drug Bound=Concentrationdonor cell−Conentrationreceiver cell/Concentrationdonor cell×100 (7) % Device Recovery=Concentrationreceiver cell+Concentrationdonor cell/Concentration5 h×100 (8) % Remaining at 5 h=Concentration5 h/Concentration0 h×100 (9) Equilibrium at 5 h=Concentrationreceiver cell/Concentrationdonor cell

[2] = In vitro metabolic stability in human liver microsomes; type: in vitro ADME; conditions: HLM
Protocol: Metabolic stability was assessed using mouse, rat, and human liver microsomes (XenoTech, LLC, Lenexa, KS, USA) for phase I metabolism. Briefly, A reaction solution was prepared by mixing […] of PBS (100 mM, pH 7.4), 25 µL of microsomal protein (20 mg/mL), MgCl2 (5 µL; 10 mM), and 50 µL of NADPH (2 mM). The final volume (0.5 mL) was pre-incubated for 10 min in a 37 °C water bath at 60 rpm. An aliquot of MO-OH-Nap (2 µL from 1 µg/mL stock) was spiked into the above solution to initiate the reaction. Aliquots of (50 µL) were collected at time intervals (0, 5, 15, 20, 30, 45, and 60 min) and quenched with 300 µL of ACN, […]. Afterwards, 10 µL of IS stock (1.0 µg/mL) was spiked in each sample then vortexed (5 min) and centrifuged at 10,800 rpm (13,000× g) for 15 min. Samples were vortexed and centrifuged at 10,800 rpm (13,000× g) for 15 min, the supernatant was collected and transferred to an HPLC vial and 10 µL were injected into the LC-MS/MS system. Testosterone and diclofenac were used as positive and negative controls to ensure that liver microsomes and incubation conditions were appropriate for conducting metabolism studies.

[3] = female, mouse, CD-1 mice, single IP 5 mg/kg, plasma

For `O=c1c(O)ccccc1-c1ccc2ccccc2c1` [MO-OH-Nap, MO-OH-Nap tropolone], the detectability in plasma ([1]; 48 h after single IP 5 mg/kg) was “detectable”, the Cmax ([1]; CD-1 mice, single IP 5 mg/kg, plasma) was 3040.9 ng/mL and the Vd/F ([1]; CD-1 mice, single IP 5 mg/kg) was 43,727.1 mL/kg. It also gave an AUC ([1]; female, CD-1, mouse, plasma, ip, CD-1 mice, single IP 5 mg/kg, plasma, read-out: AUC0_last) of 2750 ng·h/mL, an AUC ([1]; female, CD-1, mouse, plasma, ip, CD-1 mice, single IP 5 mg/kg, plasma, read-out: AUC0_∞) of 2860 ng·h/mL and a Cmax ([1]; female, CD-1, mouse, plasma, ip, CD-1 mice, single IP 5 mg/kg, plasma, read-out: Cmax) of 3040 ng/mL. It also gave a Vd/F ([1]; female, CD-1, mouse, plasma, ip, CD-1 mice, single IP 5 mg/kg, read-out: Vd/F) of 43.3 L/kg, a CL/F ([1]; female, mouse, plasma, CD-1 mice, single IP 5 mg/kg) of 29.8 mL/min/kg and a Tmax [1, 3] of 0.3 h. The half-life [1, 3] was 17.7 h, the “% Drug Remaining at 5 h ± SD” value (mouse plasma proteins; 1 µg/mL) was 105.6 ± 0.8% and the “Equilibrium at 5 h ± SD” value (mouse plasma proteins; 1 µg/mL) was 0.3 ± 0.5. The “% Drug Remaining at 5 h ± SD” value (mouse plasma proteins; 10 µg/mL) was 91.1 ± 2.5%, the “Equilibrium at 5 h ± SD” value (mouse plasma proteins; 10 µg/mL) was 0.1 ± 0.00 and the “% Plasma Protein Bound ± SD” value (mouse plasma proteins; 1 µg/mL) was 99.6 ± 0.1%. The “% Plasma Protein Bound ± SD” value (mouse plasma proteins; 10 µg/mL) was 99.7 ± 0.1%, the metabolic depletion ([2]; NADPH, 60 min) was < 15% and the parent drug remaining ([2]; all time points to 60 min) was > 95%.
